Values quoted from earlier work, collected in patent publication US20240182893A1, “INHIBITION OF FGR REDUCES FIBROSIS” (UNIVERSITY OF PITTSBURGH-OF THE COMMONWEALTH SYSTEM OF …, priority 2021, published 2024).

System: fibrosis in the lung
Details: in vivo; cited from earlier work

Row | SMILES | progression of fibrosis in the lung
1 | Cc1ccc(=O)n(-c2ccccc2)c1 [pirfenidone] | slow the progression of fibrosis
2 | COC(=O)c1ccc2c(c1)NC(=O)/C2=C(\Nc1ccc(N(C)C(=O)CN2CCN(C)CC2)cc1)c1ccccc1 [nintedanib] | slow the progression of fibrosis
